Data as given in PMC6789111, “Crossing the blood-brain-barrier with nanoligand drug carriers self-assembled from a phage display peptide” (Nature Communications, 2019).
Blank lines part the entries; values can stand above or below the compound they belong to. Peptide text beside a SMILES is read from it. * marks the point of attachment. 5FAM = O=C1OC2(c3ccc(O)cc3Oc3cc(O)ccc32)c2ccc(C(=O)*)cc21

How the values were obtained:
[1] = test system: hCMEC/D3 cells; assay: Cell uptake by flow cytometry; assay type: cell-based, human; conditions: 5 µM, 24 h, 37 °C, flow cytometry (Supplementary Fig. 13)
Description: Peptide internalisation was measured by flow cytometry (FACS ArrayTM Cell Analysis, Becton, Dickinson and Company, NJ, USA). Cells (1 × 10^5 cm^−2) were seeded on 24-well plates and grown 1 day at 37 °C and 5% CO2 in order to reach 60–70% confluence. The cells were washed 3 times with pre-heated PBS. The uptake studies were initiated by adding 500 µL of 5 µM fluorescence-labelled peptides (diluted in cell medium containing with different serum concentration). Serum concentration in incubation varied from 5 to 20% (v/v). […] A total of 10,000 cells were analysed by flow cytometry.

[2] = test system: RAGE; assay: RAGE silencing with siPORT Amine, Western blot; assay type: cell-based, human; conditions: 28 nM siRNA with siPORT Amine
Description: (§1) hCMEC/D3 cells were transfected with anti-TfR siRNA [sense sequence ([NT]) and antisense sequence ([NT])] or anti-RAGE siRNA [sense sequence ([NT]) and antisense sequence [NT]] or control siRNA using siPORT Amine transfection agent, according to the manufacturer' Neofection protocol. Briefly, siPORT Amine transfection reagent (7 μL) was added to serum-free cell medium to a final volume of 100 μL and vortexed. […] The mixture was gently mixed and incubated at room temperature for 20 min. The transfection agent/siRNA complex was added to culture plates containing 2.3 × 10^5 hCMEC/D3 cells in 2.3 mL normal growth medium. The final concentration of siRNA was 28 nM. After 24 h incubation, the medium containing transfection agent/siRNA complex was removed and fresh growth medium was added. After 48 h post transfection, the level of target protein (TfR or RAGE) was determined by Western blotting. […] Uptake was quantified by measuring fluorescence using FACS. Transferrin receptor and RAGE expression level in human cells was determined by Western blot analysis. Briefly, cells were seeded in 75 cm^2-flasks and grown to reach 60-70% confluence. The cells were washed in ice-cold PBS three times and then scraped off the flask and collected by centrifugation. The pelleted cells were lysed for 10 min at room temperature on a shaker (900 rpm) following the ProteoJETTM Mammalian Cell Lysis Reagent protocol. Lysates were spun in a centrifuge at 18,000 × g for 15 min and the supernatant was collected. Equal protein aliquots were resolved by SDS-PAGE, transferred to nitrocellulose membranes using iBot Dry Blotting system (Invitrogen, CA, USA), immunoblotted with primary antibodies (mouse anti-human TfR antibody or rabbit polyclonal to mouse and human RAGE) (1;200 and 1:750, respectively) and detected with HRP-Goat-anti-mouse (or rabbit) IgG (H + L) secondary antibody (1:3000). Tubulin was immunoblotted with mouse anti-human-β-tubulin (1:200) and detected with HRP-Goat-anti-mouse IgG (H + L) secondary antibody (1:3000). These were followed by incubation with Novex® ECL Chemiluminescent Substrate Reagent Kit. The Bands were quantified with ImageJ 1.44p (http://imagej.nih.gov/ij/).

[3] = test system: hCMEC/D3 cells; assay: Trypan Blue exclusion test; assay type: cell-based, human; conditions: after receptor down regulation
[4] = test system: TfR; assay: TfR silencing by peptide/siRNA nano-assemblies, Western blot; assay type: cell-based, human
Description: Transferrin receptor and RAGE expression level in human cells was determined by Western blot analysis. Briefly, cells were seeded in 75 cm^2-flasks and grown to reach 60-70% confluence. The cells were washed in ice-cold PBS three times and then scraped off the flask and collected by centrifugation. The pelleted cells were lysed for 10 min at room temperature on a shaker (900 rpm) following the ProteoJETTM Mammalian Cell Lysis Reagent protocol. Lysates were spun in a centrifuge at 18,000 × g for 15 min and the supernatant was collected. Equal protein aliquots were resolved by SDS-PAGE, transferred to nitrocellulose membranes using iBot Dry Blotting system (Invitrogen, CA, USA), immunoblotted with primary antibodies (mouse anti-human TfR antibody or rabbit polyclonal to mouse and human RAGE) (1;200 and 1:750, respectively) and detected with HRP-Goat-anti-mouse (or rabbit) IgG (H + L) secondary antibody (1:3000). Tubulin was immunoblotted with mouse anti-human-β-tubulin (1:200) and detected with HRP-Goat-anti-mouse IgG (H + L) secondary antibody (1:3000). These were followed by incubation with Novex® ECL Chemiluminescent Substrate Reagent Kit. The Bands were quantified with ImageJ 1.44p (http://imagej.nih.gov/ij/). […] Next, the mixtures were diluted with saline to a final peptide concentration 5 μM for TEM studies. […] After 24 h incubation, the medium was replaced by fresh growth medium. After another 48 h of incubation, the level of the target protein was determined by Western blotting. The results were compared with parallel experiments containing nano-assemblies formed from FAM-CGY and an irrelevant siRNA as well as transfection procedures with complexes formed between siRNA and siPORT Amine transfection agent. Cy3-siRNA uptake was quantified by measuring median cell fluorescence using FACS.

[5] = test system: TfR; assay: TfR silencing with siPORT Amine, Western blot; assay type: cell-based, human; conditions: 28 nM siRNA with siPORT Amine
Description: as §1

[6] = test system: claudin-5; assay: Claudin-5 silencing, Western blot; assay type: cell-based, human; conditions: siRNA delivered with FAM-CGY (5 µM), 72 h after transfection
Description: Peptide/siRNA assemblies were formed by dropwise addition (80–240 nM range) of either Cy3-siRNA or functional anti-TfR siRNA or anti-Claudin-5 siRNA (with the sense and antisense sequences of 5′-[…]tt-3′ and 5′-[…]gc-3′) to 50 µM FAM-CGY in physiological saline and incubated for 30 min. Next, the mixtures were diluted with saline to a final peptide concentration 5 µM for TEM studies. In vitro uptake and silencing experiments were performed in hCMEC/D3 cells. Briefly, peptide/siRNA nano-assemblies (5 µM FAM-CGY and either 8 or 16 or 24 nM functional siRNA, final concentration) were added to 2.3 × 10^5 hCMEC/D3 cells. After 24 h incubation, the medium was replaced by fresh growth medium. After another 48 h of incubation, the level of the target protein was determined by Western blotting. The results were compared with parallel experiments containing nano-assemblies formed from FAM-CGY and an irrelevant siRNA as well as transfection procedures with complexes formed between siRNA and siPORT Amine transfection agent. Cy3-siRNA uptake was quantified by measuring median cell fluorescence using FACS.
Supplementary Fig. 20. […] FAM-CGY (5 µM final concentration)/CLDN5-specific siRNA assemblies effectively down regulates CLDN5 in hCMEC/D3 cells as determined by Western blotting. […] CLDN5 expression was measured 72 h after transfection. […]

[7] = test system: IL-1β; assay: ELISA of IL-1β in hippocampus; assay type: in vivo, ICR mice; conditions: 24 h after i.v. (LPS 24 h); Ave.
[8] = test system: IL-6; assay: ELISA of IL-6 in hippocampus; assay type: in vivo, ICR mice; conditions: 24 h after i.v. (LPS 24 h); Ave.
Description: After 4, 24 and 72 h post injection, mice were sacrificed and perfused with 10 mL 0.9% (w/v) saline at a rate of 2 mL min^−1.
Hippocampus was dissected out, rinsed in ice-cold PBS thoroughly, weighted and immediately frozen in liquid nitrogen. Tissues were cut into small pieces and homogenized in 1 mL ice-cold PBS with a glass homogeniser and sonicated with an ultrasonic cell disrupter to break the cell membranes. Homogenates were centrifuges for 5 min at 5,000 × g and supernatants were assayed immediately for quantitative determination of TNF-α, IL-6, IL-1β, Iba-1 and GFAP by corresponding ELISA kits, respectively in accordance with manufacturer’s instructions.

[9] = test system: GFAP; assay: ELISA of GFAP in hippocampus; assay type: in vivo, ICR mice; conditions: 24 h after i.v. (LPS 24 h); Ave.
[10] = Blood count after intravenous injection; assay type: in vivo, ICR mice; conditions: mean ± s.d., n = 3
Text: Supplementary Table 2. Blood count following intravenous injection of FAM-CGY NLCs in free form and complexed with siRNA
Samples WBC RBC HGB HCT MCV MCH MCHC PLT
WBC: white blood cell; RBC: red blood cell count; HGB: haemoglobin; HCT: haematocrit; MCV: mean corpuscular volume; MCH: mean corpuscular haemoglobin; MCHC: mean corpuscular
significance (*p < 0.05). The results are mean ± s.d. (n = 3 animals per group). The experiment was repeated twice with identical results. The siRNA represent BACE-1-specific siRNA. The
final concentration of the peptide conjugate was 10 µM and that of siRNA was 48 nM, based on blood volume calculation equivalent to 6% of the body weight. LPS = lipopolysaccharide.

[11] = test system: Iba-1; assay: ELISA of Iba-1 in hippocampus; assay type: in vivo, ICR mice; conditions: 24 h after i.v. (LPS 24 h); Ave.
[12] = hCMEC/D3, control siRNA = 100.00, replicate 1

cellular uptake in contrast to FAM-CGY [1]: relatively low
Compound: CC[C@H](C)[C@H](NC(=O)[C@H](CC(N)=O)NC(=O)[C@H](Cc1c[nH]cn1)NC(=O)[C@@H](NC(=O)[C@@H]1CCCN1C(=O)[C@H](CCCNC(=N)N)NC(=O)[C@H](Cc1ccc(O)cc1)NC(=O)CNC(=O)c1ccc2c(c1)C(=O)OC21c2ccc(O)cc2Oc2cc(O)ccc21)C(C)C)C(=O)N[C@@H](CCCNC(=N)N)C(=O)NCC(=O)N[C@@H](Cc1c[nH]cn1)C(=O)N[C@@H](Cc1c[nH]c2ccccc12)C(=O)N[C@@H](C)C(=O)N1CCC[C@H]1C(=O)NCC(=O)O [FAM-GYR] (5FAM-GYRPVHNIRGHWAPG-OH)

Compound: RAGE siRNA: sense 5′-GGUGGAACCGUAACCUGAtt-3′, antisense 5′-UCAGGGUUACGGUUCCACCag-3′ (sense GGUGGAACCGUAACCUGATT; antisense UCAGGGUUACGGUUCCACCAG; chemistry not given here)
RAGE expression level (%) [2, 12]: 54.86%
RAGE expression level (%) ([2]; Ave.): 53.86%
RAGE expression level (%) ([2]; replicate 2): 57.89%
RAGE expression level (%) ([2]; replicate 3): 48.82%
cell viability [3]: > 95%

Compound: TfR siRNA: sense 5′-GGUCAUCAGGAUUGCCUAAtt-3′, antisense 5′-UUAGGCAAUCCUGAUGACCga-3′ (sense GGUCAUCAGGAUUGCCUAATT; antisense UUAGGCAAUCCUGAUGACCGA; chemistry not given here)
cell viability [3]: > 95%
TfR expression leve (% of control) ([4]; 8 nM siRNA, presumably complexed with 5 µM FAM-CGY, hCMEC/D3, 24 h + 48 h, replicate 1): 75.56%
TfR expression leve (% of control) ([4]; 8 nM siRNA, Ave.): 70.89%
TfR expression leve (% of control) ([4]; 8 nM siRNA, replicate 2): 65.03%
TfR expression leve (% of control) ([4]; 8 nM siRNA, replicate 3): 72.08%
TfR expression leve (% of control) ([4]; 16 nM siRNA, Ave.): 54.45%
TfR expression leve (% of control) ([4]; 24 nM siRNA, presumably siRNA alone, Ave.): 90.00%
TfR expression leve (% of control) ([4]; 24 nM siRNA, presumably with siPORT, Ave.): 38.58%
TfR expression level (%) [5, 12]: 30.26%
TfR expression level (%) ([5]; Ave.): 34.58%
TfR expression level (%) ([5]; replicate 2): 32.56%
TfR expression level (%) ([5]; replicate 3): 40.91%

Compound: claudin-5-specific siRNA: sense 5′-CCUUAACAGACGGAAUGAAtt-3′, antisense 5′-UUCAUUCCGUCUGUUAAGGgc-3′ (sense CCUUAACAGACGGAAUGAATT; antisense UUCAUUCCGUCUGUUAAGGGC; chemistry not given here)
claudin-5 expression [6]: downregulation of claudin-5

Compound: lipopolysaccharide from Escherichia coli O55:B5 [LPS]
IL-1β in hippocampus (Figure 6g) [7]: 36.79
IL-6 in hippocampus (Figure 6f) [8]: 9.69
GFAP in hippocampus (Figure 6i) [9]: 289.26
WBC ([10]; 24 h after i.v. (LPS 200 μg kg−1)): 1.49±0.26 (×109)L-1
HCT ([10]; 24 h after i.v.): 71.90±6.10%
HGB ([10]; 24 h after i.v.): 152.25±14.25 gL-1
MCH ([10]; 24 h after i.v.): 17.45 ± 0.45 pg
MCHC ([10]; 24 h after i.v.): 211.75±2.63 gL-1
MCV ([10]; 24 h after i.v.): 82.78 ± 1.23 fL
PLT ([10]; 24 h after i.v.): 282.45±28.83 (×109)L-1
RBC ([10]; 24 h after i.v.): 8.72±0.61 (×1012)L-1
Iba-1 in hippocampus (Figure 6h) [11]: 1.68
